Reference: US4340609A, “Amidinourea derivative veterinary compositions for suppression of parasitemia” (William H. Rorer, Inc., priority 1980, dated 1982)
Where a name gives a salt, the structure may show the parent alone. Read-outs that look alike come from different tables or passages of the source.

Columns and labels:
[1] = tested on: plasmodium berghei; assay: suppression of parasitemia in mice infected with plasmodium berghei; type: in vivo; conditions: for ED50: Plasmodium berghei, sc; for ED50 / Mean % Parasitemia / Mean % Suppression / % died: mice; for FACTOR (HIGHEST SED50 ÷ LOWEST SED50): factor of change, duration of action
Procedure: Five representative amidinoureas were tested in mice infected with plasmodium berghei. The five compounds tested are the following:
Groups of 10 mice each were used in seven doses totaling 70 mice per compound. The protozoal infection was induced by intraperitoneal injection of 5,000,000 parasitized blood cells from a donor. The compound was administered subcutaneously in doses ranging from 0.15 to 10 mg. per kg., suspended on 0.5% methacel solution (doses expressed as base). The compound was repeatedly injected on the day of inoculation (day 1), day 2 and day 3. Blood smears were performed on days 4, 5, 6 and 10.
Untreated control but infected mice developed fulminating parasitemia of as high as 35% on day 10 and deaths occurred from day 12 to 14.

[2] = LD50 in mice; conditions: mouse, in vivo
[3] = 96 h, s.c., levels of parasitemia, 4th day, read-out: SED50 (Suppressant Effective Dose50)
[4] = 120 h, s.c., levels of parasitemia, 5th day, read-out: SED50 (Suppressant Effective Dose50)
[5] = 144 h, s.c., levels of parasitemia, 6th day, read-out: SED50 (Suppressant Effective Dose50)
[6] = 240 h, s.c., levels of parasitemia, 10th day, read-out: SED50 (Suppressant Effective Dose50)
[7] = day 4 to day 10, read-out: HIGHEST SED50
[8] = day 4 to day 10, read-out: LOWEST SED50
[9] = s.c., 1.0 mg/kg on days 1-3, 4th day
[10] = s.c., 1.0 mg/kg on days 1-3, 5th day
[11] = s.c., 1.0 mg/kg on days 1-3, 6th day
[12] = s.c., 1.0 mg/kg on days 1-3, 10th day
[13] = s.c., 1.0 mg/kg on days 1-3, 12th day
[14] = s.c., 1.0 mg/kg on days 1-3, 13th day
[15] = s.c., 1.0 mg/kg on days 1-3, 14th day
[16] = s.c., 2.0 mg/kg on days 1-3, 4th day
[17] = s.c., 2.0 mg/kg on days 1-3, 5th day
[18] = s.c., 2.0 mg/kg on days 1-3, 6th day
[19] = s.c., 2.0 mg/kg on days 1-3, 10th day
[20] = s.c., 2.0 mg/kg on days 1-3, 12th day
[21] = s.c., 2.0 mg/kg on days 1-3, 13th day
[22] = s.c., 2.0 mg/kg on days 1-3, 14th day
[23] = s.c., 10.0 mg/kg on days 1-3, 4th day
[24] = s.c., 10.0 mg/kg on days 1-3, 5th day
[25] = s.c., 10.0 mg/kg on days 1-3, 6th day
[26] = s.c., 10.0 mg/kg on days 1-3, 10th day
[27] = s.c., 10.0 mg/kg on days 1-3, 13th day
[28] = s.c., 10.0 mg/kg on days 1-3, 14th day
[29] = s.c., .15 mg/kg on days 1-3, 4th day
[30] = s.c., .15 mg/kg on days 1-3, 5th day
[31] = s.c., .15 mg/kg on days 1-3, 6th day
[32] = s.c., .15 mg/kg on days 1-3, 10th day
[33] = s.c., .15 mg/kg on days 1-3, 12th day
[34] = s.c., .15 mg/kg on days 1-3, 13th day
[35] = s.c., .15 mg/kg on days 1-3, 14th day
[36] = s.c., .20 mg/kg on days 1-3, 4th day
[37] = s.c., .20 mg/kg on days 1-3, 5th day
[38] = s.c., .20 mg/kg on days 1-3, 6th day
[39] = s.c., .20 mg/kg on days 1-3, 10th day
[40] = s.c., .20 mg/kg on days 1-3, 12th day
[41] = s.c., .20 mg/kg on days 1-3, 13th day
[42] = s.c., .20 mg/kg on days 1-3, 14th day
[43] = s.c., .30 mg/kg on days 1-3, 4th day
[44] = s.c., .30 mg/kg on days 1-3, 5th day
[45] = s.c., .30 mg/kg on days 1-3, 6th day
[46] = s.c., .30 mg/kg on days 1-3, 10th day
[47] = s.c., .30 mg/kg on days 1-3, 12th day
[48] = s.c., .30 mg/kg on days 1-3, 13th day
[49] = s.c., .30 mg/kg on days 1-3, 14th day
[50] = s.c., .50 mg/kg on days 1-3, 4th day
[51] = s.c., .50 mg/kg on days 1-3, 5th day
[52] = s.c., .50 mg/kg on days 1-3, 6th day
[53] = s.c., .50 mg/kg on days 1-3, 10th day
[54] = s.c., .50 mg/kg on days 1-3, 12th day
[55] = s.c., .50 mg/kg on days 1-3, 13th day
[56] = s.c., .50 mg/kg on days 1-3, 14th day

Compound: CNC(=N)NC(=O)Nc1c(C)cccc1Br [Compound B, 1-(2-bromo-6-methylphenyl)-3-methylamidino)urea hydrochloride]
- ED50 [1, 3]: 1.87 mg/kg
- ED50 [1, 4]: 1.87 mg/kg
- ED50 [1, 5]: 1.66 mg/kg
- ED50 [1, 6]: 1.87 mg/kg
- ED50 [1, 7]: 1.87 mg/kg
- ED50 [1, 8]: 1.66 mg/kg
- FACTOR (HIGHEST SED50 ÷ LOWEST SED50) ([1]; day 4 to day 10): 1.12
- Mean % Parasitemia [1, 9]: 3.75%
- Mean % Suppression [1, 9]: 28.6%
- Mean % Parasitemia [1, 10]: 4.30%
- Mean % Suppression [1, 10]: 41.1%
- Mean % Parasitemia [1, 11]: 5.10%
- Mean % Suppression [1, 11]: 45.2%
- Mean % Parasitemia [1, 12]: 23.2%
- Mean % Suppression [1, 12]: 34.6%
- % died [1, 13]: 0%
- % died [1, 14]: 20%
- % died [1, 15]: 20%
- Mean % Parasitemia [1, 16]: 2.50%
- Mean % Suppression [1, 16]: 52.3%
- Mean % Parasitemia [1, 17]: 3.40%
- Mean % Suppression [1, 17]: 53.2%
- Mean % Parasitemia [1, 18]: 4.50%
- Mean % Suppression [1, 18]: 51.6%
- Mean % Parasitemia [1, 19]: 19.8%
- Mean % Suppression [1, 19]: 44.2%
- % died [1, 20]: 0%
- % died [1, 21]: 0%
- % died [1, 22]: 20%
- Mean % Parasitemia [1, 23]: 0.25%
- Mean % Suppression [1, 23]: 96.2%
- Mean % Parasitemia [1, 24]: 0.50%
- Mean % Suppression [1, 24]: 94.0%
- Mean % Parasitemia [1, 25]: 0.05%
- Mean % Suppression [1, 25]: 99.6%
- Mean % Parasitemia [1, 26]: 0%
- Mean % Suppression [1, 26]: 100.0%
- % died ([1]; s.c., 10.0 mg/kg on days 1-3, 12th day): 0%
- % died [1, 27]: 0%
- % died [1, 28]: 0%
- Mean % Parasitemia [1, 29]: 5.00%
- Mean % Suppression [1, 29]: 4.8%
- Mean % Parasitemia [1, 30]: 7.00%
- Mean % Suppression [1, 30]: 4.1%
- Mean % Parasitemia [1, 31]: 7.80%
- Mean % Suppression [1, 31]: 16.1%
- Mean % Parasitemia [1, 32]: 34.1%
- Mean % Suppression [1, 32]: 3.9%
- % died [1, 33]: 20%
- % died [1, 34]: 20%
- % died [1, 35]: 20%
- Mean % Parasitemia [1, 36]: 5.00%
- Mean % Suppression [1, 36]: 4.8%
- Mean % Parasitemia [1, 37]: 6.90%
- Mean % Suppression [1, 37]: 5.5%
- Mean % Parasitemia [1, 38]: 7.40%
- Mean % Suppression [1, 38]: 20.4%
- Mean % Parasitemia [1, 39]: 30.2%
- Mean % Suppression [1, 39]: 14.9%
- % died [1, 40]: 0%
- % died [1, 41]: 20%
- % died [1, 42]: 40%
- Mean % Parasitemia [1, 43]: 4.00%
- Mean % Suppression [1, 43]: 23.8%
- Mean % Parasitemia [1, 44]: 6.60%
- Mean % Suppression [1, 44]: 9.6%
- Mean % Parasitemia [1, 45]: 6.90%
- Mean % Suppression [1, 45]: 25.8%
- Mean % Parasitemia [1, 46]: 29.1%
- Mean % Suppression [1, 46]: 18.0%
- % died [1, 47]: 0%
- % died [1, 48]: 0%
- % died [1, 49]: 40%
- Mean % Parasitemia [1, 50]: 4.00%
- Mean % Suppression [1, 50]: 23.8%
- Mean % Parasitemia [1, 51]: 5.10%
- Mean % Suppression [1, 51]: 30.1%
- Mean % Parasitemia [1, 52]: 5.80%
- Mean % Suppression [1, 52]: 37.6%
- Mean % Parasitemia [1, 53]: 26.7%
- Mean % Suppression [1, 53]: 24.8%
- % died [1, 54]: 20%
- % died [1, 55]: 40%
- % died [1, 56]: 60%
- LD50 [2]: 82 to 135 mg/kg

Compound: CCCN=C(NC)NC(=O)Nc1c(C)cccc1C [Compound D, 1-(2,6-dimethylphenyl)-3-N-methyl-N'-propylamidino)urea hydrochloride]
- ED50 [1, 3]: 0.9 mg/kg
- ED50 [1, 4]: 1.91 mg/kg
- ED50 [1, 5]: 2.09 mg/kg
- ED50 [1, 6]: 4.47 mg/kg
- ED50 [1, 7]: 4.47 mg/kg
- ED50 [1, 8]: 0.9 mg/kg
- FACTOR (HIGHEST SED50 ÷ LOWEST SED50) ([1]; day 4 to day 10): 4.97
- Mean % Parasitemia [1, 9]: 2.25%
- Mean % Suppression [1, 9]: 57.1%
- Mean % Parasitemia [1, 10]: 6.50%
- Mean % Suppression [1, 10]: 11.0%
- Mean % Parasitemia [1, 11]: 6.70%
- Mean % Suppression [1, 11]: 28.0%
- Mean % Parasitemia [1, 12]: 22.4%
- Mean % Suppression [1, 12]: 36.9%
- % died [1, 13]: 20%
- % died [1, 14]: 20%
- % died [1, 15]: 40%
- Mean % Parasitemia [1, 16]: 1.75%
- Mean % Suppression [1, 16]: 66.6%
- Mean % Parasitemia [1, 17]: 3.30%
- Mean % Suppression [1, 17]: 54.8%
- Mean % Parasitemia [1, 18]: 4.80%
- Mean % Suppression [1, 18]: 48.4%
- Mean % Parasitemia [1, 19]: 20.5%
- Mean % Suppression [1, 19]: 42.3%
- % died [1, 20]: 20%
- % died [1, 21]: 20%
- % died [1, 22]: 20%
- Mean % Parasitemia [1, 23]: 0.25%
- Mean % Suppression [1, 23]: 96.2%
- Mean % Parasitemia [1, 24]: 0%
- Mean % Suppression [1, 24]: 100.0%
- Mean % Parasitemia [1, 25]: 0%
- Mean % Suppression [1, 25]: 100.0%
- Mean % Parasitemia [1, 26]: 0%
- Mean % Suppression [1, 26]: 100.0%
- % died [1, 27]: 0%
- % died [1, 28]: 0%
- Mean % Parasitemia [1, 29]: 5.00%
- Mean % Suppression [1, 29]: 4.8%
- Mean % Parasitemia [1, 30]: 7.40%
- Mean % Suppression [1, 30]: 0%
- Mean % Parasitemia [1, 31]: 9.20%
- Mean % Suppression [1, 31]: 1.1%
- Mean % Parasitemia [1, 32]: 34.0%
- Mean % Suppression [1, 32]: 4.2%
- % died [1, 33]: 0%
- % died [1, 34]: 20%
- % died [1, 35]: 80%
- Mean % Parasitemia [1, 36]: 4.50%
- Mean % Suppression [1, 36]: 14.3%
- Mean % Parasitemia [1, 37]: 7.30%
- Mean % Suppression [1, 37]: 0%
- Mean % Parasitemia [1, 38]: 9.10%
- Mean % Suppression [1, 38]: 2.2%
- Mean % Parasitemia [1, 39]: 30.8%
- Mean % Suppression [1, 39]: 13.2%
- % died [1, 40]: 40%
- % died [1, 41]: 60%
- % died [1, 42]: 100%
- Mean % Parasitemia [1, 43]: 4.50%
- Mean % Suppression [1, 43]: 14.3%
- Mean % Parasitemia [1, 44]: 7.20%
- Mean % Suppression [1, 44]: 1.4%
- Mean % Parasitemia [1, 45]: 8.20%
- Mean % Suppression [1, 45]: 11.8%
- Mean % Parasitemia [1, 46]: 26.5%
- Mean % Suppression [1, 46]: 25.4%
- % died [1, 47]: 0%
- % died [1, 48]: 0%
- % died [1, 49]: 60%
- Mean % Parasitemia [1, 50]: 3.50%
- Mean % Suppression [1, 50]: 33.3%
- Mean % Parasitemia [1, 51]: 7.10%
- Mean % Suppression [1, 51]: 2.7%
- Mean % Parasitemia [1, 52]: 7.30%
- Mean % Suppression [1, 52]: 21.5%
- Mean % Parasitemia [1, 53]: 24.3%
- Mean % Suppression [1, 53]: 31.5%
- % died [1, 54]: 20%
- % died [1, 55]: 40%
- % died [1, 56]: 80%
- LD50 [2]: 222 to 366 mg/kg
